Measurements reported in patent publication US7084136B2, “Drug composition antagonistic to both PGD2/TXA2 receptors” (Shionogi & Co., Ltd., priority 2000, dated 2006).

What was measured:
TXA2 receptor = biological target: T1, TXA2 receptor (Homo sapiens, UniProt P21731); test: Binding activity to TXA2 receptor ([3H](+)-S-145 sodium salt, human platelet membrane fraction); details: human platelet membrane fraction; 2 nM [3H](+)-S-145 sodium salt; read-out: Binding activity to TXA2 receptor in human platelet membrane fraction IC50
T1 construct: The human platelet membrane fraction was prepared in accordance with Experiment 1 (1); from tissue; host or cells: human platelet membrane fraction from blood of healthy volunteers
T1 sequence (P21731 1-343): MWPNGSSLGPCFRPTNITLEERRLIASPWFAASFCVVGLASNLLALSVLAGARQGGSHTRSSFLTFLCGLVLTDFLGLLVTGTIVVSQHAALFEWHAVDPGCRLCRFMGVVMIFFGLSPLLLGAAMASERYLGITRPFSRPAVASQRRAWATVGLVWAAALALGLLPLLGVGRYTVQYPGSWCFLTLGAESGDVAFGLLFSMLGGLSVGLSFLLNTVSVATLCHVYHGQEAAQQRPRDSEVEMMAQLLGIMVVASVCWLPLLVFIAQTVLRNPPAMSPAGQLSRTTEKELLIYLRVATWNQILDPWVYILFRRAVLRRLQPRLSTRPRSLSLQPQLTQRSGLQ
Protocol: Experiment 2 Binding Activity to TXA2 Receptor
(§1) (1) Preparation of Human Platelet Membrane Fraction
The human platelet membrane fraction was prepared in accordance with Experiment 1 (1).
(2) Binding to TXA2 Receptor
To a binding-reaction solution (50 mM Tris/HCl, pH 7.4, 10 mM MgCl2) (0.2 ml) were added the human platelet membrane fraction (0.05 mg) and 2 nM Sodium [^3H](+)-(5Z)-7-[3-endo-[(phenylsulfonyl)amino]bicyclo[2.2.1]hept-2-exo-yl]heptenoate (Japanese Patent Publication (Kokoku) No.79060/1993, hereinafter referred to as (+)-S-145 sodium salt) (26.4 Ci/mmol), and the mixture was reacted at room temperature for 90 min. After the reaction, the resultant mixture was filtered through a glass fiber filter paper and washed several times with cooled physiological saline, then the radioactivity retained on the filter paper was measured. The specific-binding ratio was calculated by subtracting the non-specific binding ratio (the radio activity similarly determined in the presence of 10 μM (+)-S-145 sodium salt) from the total binding. The inhibitory activity of each compound was expressed as the concentration required for 50% inhibition (IC50), which was determined by depicting a substitution curve by plotting the binding ratio (%) in the presence of each compound, where the binding ratio in the absence of a test compound is 100%.

PGD2 receptor [1] = biological target: T2, PGD2 receptor (Homo sapiens, UniProt Q13258); test: Antagonistic activity against PGD2 receptor using human platelet (inhibition of PGD2-induced cAMP increase); type: cell-based; details: human platelet; 0.1 μM PGD2; read-out: Inhibitory activity for the increase of cAMP caused by PGD2 in human platelet IC50
T2 construct: A suspension adjusted to contain the platelets at a final concentration of 5×10^8/ml was warmed at 37° C; endogenous in cells; host or cells: washed human platelets from a healthy volunteer
T2 sequence (Q13258 1-359): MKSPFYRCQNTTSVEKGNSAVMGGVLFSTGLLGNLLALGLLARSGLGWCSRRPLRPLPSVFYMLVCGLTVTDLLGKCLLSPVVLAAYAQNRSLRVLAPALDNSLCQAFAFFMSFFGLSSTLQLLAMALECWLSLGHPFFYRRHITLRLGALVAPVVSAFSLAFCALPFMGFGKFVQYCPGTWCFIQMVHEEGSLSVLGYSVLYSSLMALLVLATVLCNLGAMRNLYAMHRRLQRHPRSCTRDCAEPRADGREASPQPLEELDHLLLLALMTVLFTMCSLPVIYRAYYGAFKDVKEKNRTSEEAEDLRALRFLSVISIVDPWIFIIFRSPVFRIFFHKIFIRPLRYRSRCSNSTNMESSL
Protocol: Experiment 3 Evaluation of Antagonistic Activity Against PGD2 Receptor
Receptor Using Human Platelet
Peripheral blood was collected from a healthy volunteer using a syringe in which 1/9 volume of a citric acid/dextrose solution was previously added. The sample was subjected to centrifugation at 1200 rpm for 10 min to obtain the supernatant (PRP: platelet rich plasma). The resultant PRP was washed 3 times with a washing buffer and the number of platelets was counted with a micro cell counter. A suspension adjusted to contain the platelets at a final concentration of 5×10^8/ml was warmed at 37° C., then subjected to the pre-treatment with 3-isobutyl-1-methylxanthine (0.5 mM) for 5 min. To the suspension was added a test compound diluted at various concentration, and 10 minutes later, 0.1 μM PGD2 was added to induce the reaction 2 minutes later, hydrochloric acid was added to terminate the reaction. The platelet was destroyed with an ultrasonic homogenizer. After centrifugation, the cAMP in the supernatant was determined by radioimmunoassay. PGD2 receptor antagonism of a drug was evaluated as follows: the inhibition rate regarding cAMP increased by the addition of PGD2 was determined at each concentration, and the concentration of the drug required for 50% inhibition (IC50) was calculated.

PGD2 receptor [2] = biological target: T2, PGD2 receptor; test: Binding activity to PGD2 receptor ([3H]PGD2, human platelet membrane fraction); details: human platelet membrane fraction; read-out: Binding activity to PGD2 receptor in human platelet membrane fraction IC50
Protocol: Experiment 1 Binding Activity to PGD2 Receptor
as §1
Blood was collected using a plastic syringe containing 3.8% sodium citrate from the vein of healthy volunteers (adult male and female), then put into a plastic test tube and mixed by slow-reversion. The sample was then centrifuged at 1800 rpm, for 10 min at room temperature, and the supernatant containing PRP (platelet-rich plasma) was collected. The PRP was re-centrifuged at 2300 rpm, for 22 min at room temperature to obtain platelets. The platelets were homogenized using a homogenizer (Ultra-Turrax) followed by centrifugation 3 times at 20,000 rpm, 10 min at 4° C. to obtain a platelet membrane fraction. After protein determination, the membrane fraction was adjusted to 2 mg/ml and preserved in a refrigerator at −80° C. until using for the binding test.
(2) Binding to PGD2 Receptor
To a binding-reaction solution (50 mM Tris/HCl, pH 7.4, 5 mM MgCl2) (0.2 ml) were added the human platelet membrane fraction (0.1 mg) and 5 nM [^3H]PGD2 (115 Ci/mmol), and the mixture was reacted at 4° C. for 90 min. After the reaction, the mixture was filtered through a glass fiber filter paper and washed several times with cooled physiological saline, then the radioactivity retained on the filter paper was measured. The specific-binding ratio was calculated by subtracting the non-specific binding ratio which is the radioactivity similarly measured in the presence of 10 μM PGD2 from the total binding. The inhibitory activity of each compound was expressed as the concentration required for 50% inhibition (IC50), which was determined by depicting a substitution curve by plotting the binding ratio (%) in the presence of each compound, where the binding ratio in the absence of a test compound is 100%.

SMILES | IC50 (TXA2 receptor) | IC50 (PGD2 receptor [1]) | IC50 (PGD2 receptor [2])
O=C(O)CCCC[C@H]1[C@@H]2CC[C@@H](C2)[C@@H]1NC(=O)c1ccc(Sc2cccs2)s1 [I-5A-59a] | 11 nM | 79 nM | –
COc1ccccc1Cc1ccc(C(=O)N[C@H]2[C@H]3CC[C@H](C3)[C@@H]2CCCC/C=C/C(=O)O)s1 [I-71-126a] | 61 nM | 21 nM | –
Cc1ccc(C)n1S(=O)(=O)c1ccc(C(=O)N[C@H]2[C@H]3CC[C@H](C3)[C@@H]2CCCC/C=C/C(=O)O)s1 [I-71-270a] | 0.9 nM | 26 nM | –
O=C(O)CCC/C=C\C[C@H]1[C@@H]2CC[C@@H](C2)[C@@H]1NC(=O)c1ccc(Cc2cccs2)s1 [I-93] | 72 nM | 8.4 nM | 7 nM
O=C(O)CCC/C=C\C[C@H]1[C@@H]2CC[C@@H](C2)[C@@H]1NC(=O)c1ccc(Sc2cccs2)s1 [I-59] | 16 nM | 4.6 nM | 0.41 nM
O=C(O)COCCCC[C@H]1[C@@H]2CC[C@@H](C2)[C@@H]1NC(=O)c1ccc(Sc2cccs2)s1 [I-7M-59a] | 40 nM | 24 nM | –
O=C(O)CCC/C=C\C[C@H]1[C@@H]2CC[C@@H](C2)[C@@H]1NC(=O)c1ccc(S(=O)(=O)c2ccsc2)s1 [I-80] | 5.2 nM | 39 nM | 6.6 nM
O=C(O)CCC/C=C\C[C@H]1[C@@H]2CC[C@@H](C2)[C@@H]1NC(=O)c1ccc(Cc2ccccc2)s1 [I-31] | 130 nM | 5.7 nM | 8.2 nM
O=C(O)CCCCCC[C@H]1[C@@H]2CC[C@@H](C2)[C@@H]1NC(=O)c1ccc(Sc2cccs2)s1 [I-7A-59a] | 9.8 nM | 12 nM | –

Further lines, results first:

IC50 (TXA2 receptor) | IC50 (PGD2 receptor [1]) | IC50 (PGD2 receptor [2]) | SMILES
27 nM | 17 nM | 0.92 nM | O=C(O)CCC/C=C\C[C@H]1[C@@H]2CC[C@@H](C2)[C@@H]1NC(=O)c1csc2c(Cc3ccoc3)cccc12 [I-170]
4.3 nM | 35 nM | 26 nM | CC1(C)[C@H]2C[C@H](C/C=C\CCCC(=O)O)[C@@H](NC(=O)c3ccc(S(=O)(=O)c4ccccc4)s3)[C@@H]1C2 [II-37]
20 nM | 85 nM | 28 nM | O=C(O)CCC/C=C\C[C@H]1[C@@H]2CC[C@@H](C2)[C@@H]1NC(=O)c1cc2ccc(Cc3ccccc3)cc2s1 [I-160]
39 nM | 1.6 nM | 0.1 nM | O=C(O)CCC/C=C\C[C@H]1[C@@H]2CC[C@@H](C2)[C@@H]1NC(=O)c1ccc(CSc2cccs2)s1 [I-104]
3.8 nM | 47 nM | 9.1 nM | O=C(O)CCC/C=C\C[C@H]1[C@@H]2CC[C@@H](C2)[C@@H]1NC(=O)c1ccc(S(=O)(=O)c2cccc(O)c2)s1 [I-117]
4.4 nM | 3.9 nM | 1.5 nM | Cc1cccn1S(=O)(=O)c1ccc(C(=O)N[C@@H]2[C@@H](C/C=C\CCCC(=O)O)C[C@H]3C[C@@H]2C3(C)C)s1 [II-55]
72 nM | 25 nM | 32 nM | CC1(C)[C@H]2C[C@H](C/C=C\CCCC(=O)O)[C@@H](NC(=O)c3ccc(Cc4cccc(-c5ccccc5)c4)s3)[C@@H]1C2 [II-138]
28 nM | 11 nM | 61 nM | O=C(O)CCC/C=C\C[C@H]1[C@@H]2CC[C@@H](C2)[C@@H]1NC(=O)c1ccc(Cc2csc3ccccc23)s1 [I-182]
16 nM | 15 nM | 23 nM | O=C(O)CCC/C=C\C[C@H]1[C@@H]2CC[C@@H](C2)[C@@H]1NC(=O)c1ccc(Cc2cc3ccccc3o2)s1 [I-136]
52 nM | 22 nM | 11 nM | Cc1ccc(Cc2ccc(C(=O)N[C@H]3[C@H]4CC[C@H](C4)[C@@H]3C/C=C\CCCC(=O)O)s2)s1 [I-129]
34 nM | 29 nM | 0.46 nM | O=C(O)CCC/C=C\C[C@H]1[C@@H]2CC[C@@H](C2)[C@@H]1NC(=O)c1csc2c(Cc3cccs3)cccc12 [I-168]
32 nM | 26 nM | 0.61 nM | O=C(O)CCC/C=C\C[C@H]1[C@@H]2CC[C@@H](C2)[C@@H]1NC(=O)c1csc2c(Cc3ccsc3)cccc12 [I-169]
